Values quoted from earlier work in US8025907B2, “Cosmetic composition to accelerate repair of functional wrinkles” (priority 2005, dated 2011).

Tests used:
[1] = tested on: forehead expression lines; conditions: 28 days
[2] = tested on: wrinkles

Row | Substance | reduction of forehead expression lines [1] | wrinkle depth reduction by the hexapeptide component ([2]; after thirty days, after factoring the influence of the cosmetic base ingredient) | time before a visible reduction in wrinkles can occur ([2]; on average)
1 | Dipeptide Diaminobutyroyl Benzalamide Diacetate | up to 52% | – | –
2 | acetyl hexapeptide-3 | – | less than 30% | up to 30 days
